Holding throughout (type): cell-based
The target in experiment [1] is T1, EGFR WT (Homo sapiens, UniProt P00533). In words: Activity for inhibiting EGFR (Table A), EGFR WT. To be noted: read-out: EGFR WT, potency code (IC50).
For experiment [2], the target named is T2, EGFR V3 (Homo sapiens, UniProt P00533, DELINS30-297G).
T2 construct: expressed in transfected cells; host or cells: BaF3 (murine pro-B), retroviral pMXs-IRES-Blasticidin
In words: Activity for inhibiting EGFR (Table A), EGFR V3 (EGFR-Viii). To be noted: read-out: EGFR V3, potency code (IC50).

Experiment [3] concerns the target T3, HER2 S310F (Homo sapiens, UniProt P04626, S310F).
T3 construct: expressed in transfected cells; host or cells: BaF3 (murine pro-B)
In words: Activity for inhibiting HER2 (Table B), HER2 S310F. To be noted: read-out: HER2 S310F, potency code (IC50). The procedure:
(§1) EC50 values were determined with the same application.

For experiment [4], the target named is T4, HER2 YVMA (Homo sapiens, UniProt P04626, INS775YVMA).
T4 construct: expressed in transfected cells; host or cells: BaF3 (murine pro-B)
T4 sequence (P04626 with tags, fused parts or gaps INS775YVMA): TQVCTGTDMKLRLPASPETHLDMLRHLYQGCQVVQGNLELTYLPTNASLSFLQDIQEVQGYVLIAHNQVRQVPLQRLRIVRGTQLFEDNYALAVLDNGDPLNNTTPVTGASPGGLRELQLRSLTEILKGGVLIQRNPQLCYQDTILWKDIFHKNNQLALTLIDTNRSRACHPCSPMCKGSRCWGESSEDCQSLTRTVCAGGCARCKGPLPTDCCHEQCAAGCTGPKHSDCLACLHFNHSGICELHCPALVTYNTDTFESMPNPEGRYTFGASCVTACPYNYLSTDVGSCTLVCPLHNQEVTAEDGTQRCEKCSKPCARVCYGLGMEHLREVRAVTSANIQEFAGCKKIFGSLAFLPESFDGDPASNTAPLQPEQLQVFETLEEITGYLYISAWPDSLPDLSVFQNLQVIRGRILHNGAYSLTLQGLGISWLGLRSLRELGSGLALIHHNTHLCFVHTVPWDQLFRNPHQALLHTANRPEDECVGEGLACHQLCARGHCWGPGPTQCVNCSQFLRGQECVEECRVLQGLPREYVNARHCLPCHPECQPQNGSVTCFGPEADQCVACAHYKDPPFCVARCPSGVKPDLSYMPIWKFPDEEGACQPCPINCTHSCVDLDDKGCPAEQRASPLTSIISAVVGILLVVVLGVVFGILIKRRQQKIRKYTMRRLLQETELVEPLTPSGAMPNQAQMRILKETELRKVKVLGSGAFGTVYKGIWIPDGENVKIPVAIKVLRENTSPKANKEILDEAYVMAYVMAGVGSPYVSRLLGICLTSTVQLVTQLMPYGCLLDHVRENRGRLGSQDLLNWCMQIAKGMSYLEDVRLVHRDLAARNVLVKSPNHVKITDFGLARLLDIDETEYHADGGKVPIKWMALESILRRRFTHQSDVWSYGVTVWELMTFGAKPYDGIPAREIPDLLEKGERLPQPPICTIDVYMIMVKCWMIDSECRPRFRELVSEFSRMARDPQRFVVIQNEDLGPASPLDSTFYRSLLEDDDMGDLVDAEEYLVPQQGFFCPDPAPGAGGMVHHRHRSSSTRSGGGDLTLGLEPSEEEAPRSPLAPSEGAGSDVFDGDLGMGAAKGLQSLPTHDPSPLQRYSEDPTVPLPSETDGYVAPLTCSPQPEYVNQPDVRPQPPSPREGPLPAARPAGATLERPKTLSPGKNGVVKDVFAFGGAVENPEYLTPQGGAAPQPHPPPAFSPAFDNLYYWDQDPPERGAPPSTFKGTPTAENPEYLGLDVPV
As to the kind of experiment: Activity for inhibiting HER2 (Table B), HER2 YVMA. Conditions: read-out: HER2 YVMA, potency code (IC50). The method, then: as §1

In experiment [5] the target is T1, EGFR WT. In words: BaF3 cell proliferation assay, EGFR WT (Table A). To be noted: potency code, 3 days, CellTiterGlo, read-out: EGFR WT (Activity for Inhibiting EGFR). The procedure, abridged: (§2)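 Mouse BaF3 cells were retrovirally transduced (pMXs-IRES-Blasticidin, VSV-G pseudotyped virus from HEK 293T) with the human EGFR or HER2 variant, selected in 10 μg/ml Blasticidin for one week, then made IL-3 independent. EC50 values come from proliferation of these lines.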

Experiment [6] concerns the target T2, EGFR V3. In words: BaF3 cell proliferation assay, EGFR V3 (Table A). To be noted: potency code, 3 days, CellTiterGlo, read-out: EGFR V3 (Activity for Inhibiting EGFR). Put shortly:
as §2

In experiment [7] the target is T3, HER2 S310F. In words: BaF3 cell proliferation assay, HER2 S310F (Table B). To be noted: potency code, 3 days, CellTiterGlo, read-out: HER2 S310F (Activity for Inhibiting HER2). (ATP-based viability assays read luminescence as a measure of living cells.)
Experiment [8] deals with T4, HER2 YVMA. In words: BaF3 cell proliferation assay, HER2 YVMA (Table B). Conditions: potency code, 3 days, CellTiterGlo, read-out: HER2 YVMA (Activity for Inhibiting HER2).

T3 sequence (P04626 23-1255 S310F): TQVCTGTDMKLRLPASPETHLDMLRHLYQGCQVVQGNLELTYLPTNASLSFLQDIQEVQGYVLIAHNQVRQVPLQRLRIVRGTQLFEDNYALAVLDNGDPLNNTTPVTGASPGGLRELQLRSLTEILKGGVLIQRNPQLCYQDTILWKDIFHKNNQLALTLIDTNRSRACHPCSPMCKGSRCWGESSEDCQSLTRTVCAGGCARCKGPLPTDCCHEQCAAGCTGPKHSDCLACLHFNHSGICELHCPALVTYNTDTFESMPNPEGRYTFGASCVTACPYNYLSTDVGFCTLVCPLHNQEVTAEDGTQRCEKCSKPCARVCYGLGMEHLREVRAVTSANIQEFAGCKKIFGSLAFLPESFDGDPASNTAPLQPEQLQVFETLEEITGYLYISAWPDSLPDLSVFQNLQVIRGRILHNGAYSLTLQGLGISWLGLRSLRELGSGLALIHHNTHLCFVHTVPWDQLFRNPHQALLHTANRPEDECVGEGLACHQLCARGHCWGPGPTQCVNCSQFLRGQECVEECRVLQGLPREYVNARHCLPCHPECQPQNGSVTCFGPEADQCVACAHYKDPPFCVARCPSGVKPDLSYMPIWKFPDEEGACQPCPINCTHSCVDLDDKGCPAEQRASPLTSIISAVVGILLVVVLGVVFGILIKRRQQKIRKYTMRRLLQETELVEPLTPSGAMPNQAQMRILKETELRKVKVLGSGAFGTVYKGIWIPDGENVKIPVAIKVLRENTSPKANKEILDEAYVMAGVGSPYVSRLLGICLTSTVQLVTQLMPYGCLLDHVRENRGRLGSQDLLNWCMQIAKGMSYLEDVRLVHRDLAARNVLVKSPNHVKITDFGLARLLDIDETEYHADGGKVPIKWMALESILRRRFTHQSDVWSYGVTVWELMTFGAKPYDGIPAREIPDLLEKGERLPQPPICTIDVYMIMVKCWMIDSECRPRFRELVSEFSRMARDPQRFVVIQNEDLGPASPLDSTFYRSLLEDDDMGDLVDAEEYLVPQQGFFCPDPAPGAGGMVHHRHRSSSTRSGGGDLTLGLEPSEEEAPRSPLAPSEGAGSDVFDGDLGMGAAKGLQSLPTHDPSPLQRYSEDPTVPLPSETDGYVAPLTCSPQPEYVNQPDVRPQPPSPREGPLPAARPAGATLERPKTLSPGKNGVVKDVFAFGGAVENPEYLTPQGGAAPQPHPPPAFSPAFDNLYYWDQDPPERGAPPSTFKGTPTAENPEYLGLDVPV
T2 sequence (P00533 with tags, fused parts or gaps DELINS30-297G): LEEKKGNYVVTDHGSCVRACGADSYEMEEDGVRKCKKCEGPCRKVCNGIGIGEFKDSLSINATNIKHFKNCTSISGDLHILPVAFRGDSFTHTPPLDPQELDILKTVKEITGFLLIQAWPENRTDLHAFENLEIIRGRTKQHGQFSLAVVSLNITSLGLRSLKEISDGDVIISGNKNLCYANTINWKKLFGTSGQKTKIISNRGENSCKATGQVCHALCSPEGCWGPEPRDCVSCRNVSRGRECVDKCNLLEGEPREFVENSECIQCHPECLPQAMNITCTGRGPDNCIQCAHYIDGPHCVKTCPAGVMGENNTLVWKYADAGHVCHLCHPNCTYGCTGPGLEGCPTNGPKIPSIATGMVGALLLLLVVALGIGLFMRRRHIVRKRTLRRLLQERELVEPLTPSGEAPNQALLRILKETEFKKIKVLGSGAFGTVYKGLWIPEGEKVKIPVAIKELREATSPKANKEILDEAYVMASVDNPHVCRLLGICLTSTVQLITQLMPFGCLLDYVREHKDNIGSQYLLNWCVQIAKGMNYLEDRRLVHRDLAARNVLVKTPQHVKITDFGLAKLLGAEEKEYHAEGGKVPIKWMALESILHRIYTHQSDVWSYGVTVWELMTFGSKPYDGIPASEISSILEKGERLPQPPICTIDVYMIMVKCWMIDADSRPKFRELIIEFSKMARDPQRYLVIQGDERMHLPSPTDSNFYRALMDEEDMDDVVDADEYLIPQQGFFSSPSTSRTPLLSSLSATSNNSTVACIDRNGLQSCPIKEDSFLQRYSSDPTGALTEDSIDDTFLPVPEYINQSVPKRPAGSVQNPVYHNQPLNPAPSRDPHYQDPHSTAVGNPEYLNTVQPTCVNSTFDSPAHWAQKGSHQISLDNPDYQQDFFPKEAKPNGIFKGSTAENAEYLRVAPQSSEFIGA
T1 sequence (P00533 25-1210 N540K): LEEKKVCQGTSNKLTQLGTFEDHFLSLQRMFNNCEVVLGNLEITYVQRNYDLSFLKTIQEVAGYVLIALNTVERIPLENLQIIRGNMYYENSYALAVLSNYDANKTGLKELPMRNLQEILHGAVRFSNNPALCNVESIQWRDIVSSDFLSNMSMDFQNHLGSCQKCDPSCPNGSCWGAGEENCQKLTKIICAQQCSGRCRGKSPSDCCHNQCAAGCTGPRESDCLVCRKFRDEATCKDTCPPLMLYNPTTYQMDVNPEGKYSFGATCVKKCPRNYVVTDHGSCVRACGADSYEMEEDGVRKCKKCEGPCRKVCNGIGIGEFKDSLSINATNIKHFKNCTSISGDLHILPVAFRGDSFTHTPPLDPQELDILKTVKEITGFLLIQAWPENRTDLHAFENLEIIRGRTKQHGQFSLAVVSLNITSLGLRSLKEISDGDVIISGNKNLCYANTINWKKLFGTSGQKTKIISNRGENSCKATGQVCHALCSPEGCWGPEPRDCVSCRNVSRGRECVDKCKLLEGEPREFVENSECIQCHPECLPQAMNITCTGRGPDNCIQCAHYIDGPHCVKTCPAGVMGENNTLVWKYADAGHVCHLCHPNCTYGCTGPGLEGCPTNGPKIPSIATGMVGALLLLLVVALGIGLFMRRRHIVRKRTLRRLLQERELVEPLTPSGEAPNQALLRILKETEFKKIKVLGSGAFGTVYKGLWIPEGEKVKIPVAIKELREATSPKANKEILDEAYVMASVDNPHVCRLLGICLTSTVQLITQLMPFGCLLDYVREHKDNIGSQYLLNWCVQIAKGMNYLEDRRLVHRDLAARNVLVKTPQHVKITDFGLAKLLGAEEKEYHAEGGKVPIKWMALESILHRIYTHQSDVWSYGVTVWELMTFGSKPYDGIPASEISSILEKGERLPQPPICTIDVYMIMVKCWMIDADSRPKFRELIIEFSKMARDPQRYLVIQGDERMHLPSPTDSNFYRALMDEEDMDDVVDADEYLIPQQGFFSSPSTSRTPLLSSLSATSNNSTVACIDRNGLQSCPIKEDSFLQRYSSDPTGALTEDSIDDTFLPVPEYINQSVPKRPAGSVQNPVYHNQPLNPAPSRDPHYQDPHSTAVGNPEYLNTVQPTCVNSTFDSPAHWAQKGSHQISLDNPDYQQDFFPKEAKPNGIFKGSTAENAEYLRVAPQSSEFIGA

Turning to `C=CC(=O)Nc1cc2c(Nc3ccc(OCc4cccc(F)n4)c(Cl)c3)ncnc2cc1OCCCN1C[C@@H]2C[C@H]1CO2` [compound 161], the IC50 fell in the range of 200 to 300 nM at EGFR WT [1]; 30 to 50 nM on EGFR V3 [2]; 30 to 50 nM at HER2 S310F [3]; 100 to 200 nM at HER2 YVMA [4]; 200 to 300 nM at EGFR WT [5]; 30 to 50 nM on EGFR V3 [6]. In addition, the IC50 at HER2 S310F [7] was 30 to 50 nM; at HER2 YVMA [8], 100 to 200 nM.

`C=CC(=O)Nc1cc2c(Nc3ccc(OCc4cccc(F)n4)c(Cl)c3)ncnc2cc1OCCCN1C[C@H]2C[C@@H]1CO2` [compound 162]: the IC50 on EGFR WT [1] fell in the range of 300 to 500 nM; on EGFR V3 [2], 30 to 50 nM; on HER2 S310F [3], 30 to 50 nM; on HER2 YVMA [4] it was 100 to 200 nM; on EGFR WT [5], 300 to 500 nM; at EGFR V3 [6] it was 30 to 50 nM. Also, the IC50 on HER2 S310F [7] is 30 to 50 nM; on HER2 YVMA [8], 100 to 200 nM.

With `C=CC(=O)Nc1cc2c(Nc3ccc(OCc4ccncn4)c(Cl)c3)ncnc2cc1OCCCN1CCOCC1` [compound 163], the IC50 was above 1000 nM on EGFR WT [1]; 50 to 100 nM at EGFR V3 [2]; 30 to 50 nM on HER2 S310F [3]; 100 to 200 nM on HER2 YVMA [4]; above 1000 nM at EGFR WT [5]; 50 to 100 nM at EGFR V3 [6]. Further, the figures for the IC50 on HER2 S310F [7] and at HER2 YVMA [8] were 30 to 50 nM and 100 to 200 nM, respectively.

For `CC#CC(=O)Nc1cc2c(Nc3ccc(OCc4ccncn4)c(Cl)c3)ncnc2cc1OCCCN1CCOCC1` [compound 164, N-(4-((3-chloro-4-(pyrimidin-4-ylmethoxy)phenyl)amino)-7-(3-morpholinopropoxy)quinazolin-6-yl)but-2-ynamide], the IC50 at EGFR WT [1] lay within 300 to 500 nM; on EGFR V3 [2], 50 to 100 nM; at HER2 S310F [3], 30 to 50 nM; on HER2 YVMA [4], 100 to 200 nM; on EGFR WT [5], 300 to 500 nM; at EGFR V3 [6] it was 50 to 100 nM. Besides, the IC50 lay in the range of 30 to 50 nM at HER2 S310F [7] and 100 to 200 nM at HER2 YVMA [8].

For the compound `CC#CC(=O)Nc1cc2c(Nc3ccc(OCc4cccnn4)c(Cl)c3)ncnc2cc1OCCCN1CCOCC1` [compound 165, N-(4-((3-chloro-4-(pyridazin-3-ylmethoxy)phenyl)amino)-7-(3-morpholinopropoxy)quinazolin-6-yl)but-2-ynamide], the IC50 lay within 100 to 200 nM on EGFR WT [1]; 30 to 50 nM at EGFR V3 [2]; 10 to 20 nM on HER2 S310F [3]; 50 to 100 nM on HER2 YVMA [4]; 100 to 200 nM at EGFR WT [5]; 30 to 50 nM on EGFR V3 [6]. Further, the IC50 lay within 10 to 20 nM at HER2 S310F [7] and 50 to 100 nM at HER2 YVMA [8].

In the case of `C=CC(=O)Nc1cc2c(Nc3ccc(OCc4ncccn4)c(Cl)c3)ncnc2cc1OCCCN1CCOCC1` [compound 166], the IC50 was above 1000 nM on EGFR WT [1]; 30 to 50 nM at EGFR V3 [2]; 30 to 50 nM at HER2 S310F [3]; 100 to 200 nM on HER2 YVMA [4]; above 1000 nM on EGFR WT [5]; 30 to 50 nM on EGFR V3 [6]. For the same compound, the values for the IC50 at HER2 S310F [7] and at HER2 YVMA [8] were 30 to 50 nM and 100 to 200 nM, respectively.

Take `C=CC(=O)Nc1cc2c(Nc3ccc(OCc4cccnn4)c(Cl)c3)ncnc2cc1OCCCN1CCOCC1` [compound 167]: the IC50 on EGFR WT [1] is above 1000 nM; at EGFR V3 [2] it was 30 to 50 nM; at HER2 S310F [3], 10 to 20 nM; at HER2 YVMA [4] it was 50 to 100 nM; at EGFR WT [5], above 1000 nM; at EGFR V3 [6], 30 to 50 nM. For the same compound, the IC50 on HER2 S310F [7] lay within 10 to 20 nM; on HER2 YVMA [8] it was 50 to 100 nM.

`CC#CC(=O)Nc1cc2c(Nc3ccc(OCc4ncccn4)c(Cl)c3)ncnc2cc1OCCCN1CCOCC1` [compound 168, N-(4-((3-chloro-4-(pyrimidin-2-ylmethoxy)phenyl)amino)-7-(3-morpholinopropoxy)quinazolin-6-yl)but-2-ynamide]: the IC50 on EGFR WT [1] is 200 to 300 nM; at EGFR V3 [2], 30 to 50 nM; at HER2 S310F [3] it was 20 to 30 nM; on HER2 YVMA [4], 50 to 100 nM; at EGFR WT [5] it was 200 to 300 nM; at EGFR V3 [6] it was 30 to 50 nM. Besides, the IC50 lay in the range of 20 to 30 nM at HER2 S310F [7] and 50 to 100 nM on HER2 YVMA [8].

Regarding `C=CC(=O)Nc1cc2c(Nc3ccc(OCc4cnccn4)c(Cl)c3)ncnc2cc1OCCCN1CCOCC1` [compound 169], the IC50 at EGFR WT [1] was above 1000 nM; on EGFR V3 [2] it was 30 to 50 nM; at HER2 S310F [3], 10 to 20 nM; on HER2 YVMA [4], 30 to 50 nM; at EGFR WT [5] it was above 1000 nM; at EGFR V3 [6], 30 to 50 nM. In addition, the IC50 at HER2 S310F [7] lay in the range of 10 to 20 nM; at HER2 YVMA [8], 30 to 50 nM.

On to `CC#CC(=O)Nc1cc2c(Nc3ccc(OCc4cnccn4)c(Cl)c3)ncnc2cc1OCCCN1CCOCC1` [compound 170, N-(4-((3-chloro-4-(pyrazin-2-ylmethoxy)phenyl)amino)-7-(3-morpholinopropoxy)quinazolin-6-yl)but-2-ynamide], for which the IC50 was in the range of 200 to 300 nM at EGFR WT [1]; 30 to 50 nM at EGFR V3 [2]; 5 to 10 nM at HER2 S310F [3]; 10 to 20 nM at HER2 YVMA [4]; 200 to 300 nM on EGFR WT [5]; 30 to 50 nM at EGFR V3 [6]. The IC50 on HER2 S310F [7] fell in the range of 5 to 10 nM; on HER2 YVMA [8] it was 10 to 20 nM.

For `C=CC(=O)Nc1cc2c(Nc3ccc(OCc4cccnn4)c(Cl)c3)ncnc2cc1OCCN1CCOCC1` [compound 171], the IC50 is above 1000 nM on EGFR WT [1]; 50 to 100 nM on EGFR V3 [2]; 50 to 100 nM on HER2 S310F [3]; 300 to 500 nM at HER2 YVMA [4]; above 1000 nM at EGFR WT [5]; 50 to 100 nM at EGFR V3 [6]. The IC50 is 50 to 100 nM at HER2 S310F [7] and 300 to 500 nM at HER2 YVMA [8].

With `C=CC(=O)Nc1cc2c(Nc3ccc(OCc4cccnn4)c(Cl)c3)ncnc2cc1OCCN1CCN(C)CC1` [compound 172], the IC50 on EGFR WT [1] lay in the range of 500 to 1000 nM; on EGFR V3 [2], 100 to 200 nM; on HER2 S310F [3], 50 to 100 nM; at HER2 YVMA [4], 300 to 500 nM; on EGFR WT [5], 500 to 1000 nM; on EGFR V3 [6], 100 to 200 nM. Also, the IC50 lay within 50 to 100 nM on HER2 S310F [7] and 300 to 500 nM on HER2 YVMA [8].

As to `C=CC(=O)Nc1cc2c(Nc3ccc(OCc4cccnn4)c(Cl)c3)ncnc2cc1OCCN1CC2CCC(C1)O2` [compound 173], the IC50 at EGFR WT [1] is above 1000 nM; at EGFR V3 [2] it was 50 to 100 nM; at HER2 S310F [3], 30 to 50 nM; on HER2 YVMA [4], 200 to 300 nM; at EGFR WT [5], above 1000 nM; on EGFR V3 [6] it was 50 to 100 nM. The IC50 at HER2 S310F [7] fell in the range of 30 to 50 nM; on HER2 YVMA [8], 200 to 300 nM.

Turning to `C=CC(=O)Nc1cc2c(Nc3ccc(OCc4cccnn4)c(Cl)c3)ncnc2cc1OCCN1CC(OC)C1` [compound 174], the IC50 was above 1000 nM at EGFR WT [1]; 50 to 100 nM on EGFR V3 [2]; 50 to 100 nM at HER2 S310F [3]; 300 to 500 nM at HER2 YVMA [4]; above 1000 nM at EGFR WT [5]; 50 to 100 nM on EGFR V3 [6]. Besides, the IC50 at HER2 S310F [7] was 50 to 100 nM; on HER2 YVMA [8], 300 to 500 nM.

Consider `C=CC(=O)Nc1cc2c(Nc3ccc(OCc4cnccn4)c(Cl)c3)ncnc2cc1OCCN1CC2CCC(C1)O2` [compound 175], for which the IC50 is above 1000 nM on EGFR WT [1]; 30 to 50 nM on EGFR V3 [2]; 20 to 30 nM at HER2 S310F [3]; 100 to 200 nM at HER2 YVMA [4]; above 1000 nM on EGFR WT [5]; 30 to 50 nM on EGFR V3 [6]. For the same compound, the IC50 on HER2 S310F [7] fell in the range of 20 to 30 nM; at HER2 YVMA [8], 100 to 200 nM.

For `C=CC(=O)Nc1cc2c(Nc3ccc(OCc4cnccn4)c(Cl)c3)ncnc2cc1OCCN1CCOCC1` [compound 176], the IC50 at EGFR WT [1] is above 1000 nM; at EGFR V3 [2], 30 to 50 nM; at HER2 S310F [3] it was 20 to 30 nM; at HER2 YVMA [4], 100 to 200 nM; on EGFR WT [5], above 1000 nM; at EGFR V3 [6] it was 30 to 50 nM. Moreover, the IC50 at HER2 S310F [7] was 20 to 30 nM; on HER2 YVMA [8], 100 to 200 nM.

(Values after patent publication US11034672B1, “Tyrosine kinase inhibitor compositions, methods of making and methods of use” (Black Diamond Therapeutics, Inc., priority 2018, dated 2021).)
